In PubChem BioAssay AID330 (DTP/NCI, 2004):
Where “and” joins values, the source holds several entries; their conditions need not be identical. Equal values may be shown once. Inconclusive results and toxic doses are left out. Rule for the calls: active = survival T/C of 150% or more; inactive = T/C below 125% in these data.

Test system: P388 leukemia ip, CD2F1 mice, survival T/C
Experiment: NCI In Vivo Anticancer Drug Screen. Data for tumor model P388 Leukemia (intraperitoneal) in CD2F1 (CDF1) mice
Conditions: endpoint: median survival time, higher = longer survival
Method in brief: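 Mice carrying the transplanted tumor received test compound or vehicle. Survival was recorded in each group, and the value is the treated-group measurement divided by that of the vehicle-treated control group.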

[1] = dose: 50.0 mg/kg/injection, schedule: Q01DX009 (ip), vehicle: saline with Tween-80
[2] = dose: 100.0 mg/kg/injection, schedule: Q01DX009 (ip), vehicle: saline with Tween-80
[3] = dose: 200.0 mg/kg/injection, schedule: Q01DX009 (ip), vehicle: saline with Tween-80
[4] = dose: 60.0 mg/kg/injection, schedule: Q01DX005 (ip), vehicle: saline with Tween-80
[5] = dose: 120.0 mg/kg/injection, schedule: Q01DX005 (ip), vehicle: saline with Tween-80
[6] = dose: 240.0 mg/kg/injection, schedule: Q01DX005 (ip), vehicle: saline with Tween-80
[7] = dose: 25.0 mg/kg/injection, schedule: Q01DX009 (ip), vehicle: saline
[8] = dose: 25.0 mg/kg/injection, schedule: Q01DX009 (ip), vehicle: saline with Tween-80
[9] = dose: 50.0 mg/kg/injection, schedule: Q01DX005 (ip), vehicle: saline with Tween-80
[10] = dose: 100.0 mg/kg/injection, schedule: Q01DX005 (ip), vehicle: saline with Tween-80
[11] = dose: 200.0 mg/kg/injection, schedule: Q01DX005 (ip), vehicle: saline with Tween-80
[12] = dose: 50.0 mg/kg/injection, schedule: Q01DX009 (ip), vehicle: saline
[13] = dose: 100.0 mg/kg/injection, schedule: Q01DX009 (ip), vehicle: saline
[14] = dose: 200.0 mg/kg/injection, schedule: Q01DX009 (ip), vehicle: saline

Measured: T/C

CCC#CC(=O)OC
inactive: [1] 94 % of control | [2] 103 % of control | [3] 114 % of control

CCOC(=O)c1cc(OCC)c(OCC)c(OCC)c1N
inactive: [1] 100 % of control | [2] 100 % of control | [3] 111 % of control

CC1(C)C2CC[C@@]1(CS(=O)(=O)N(CCCl)CCCl)C(=O)C2
inactive: dose: 30.0 mg/kg/injection, schedule: Q01DX005 (ip), vehicle: saline 99 % of control | dose: 60.0 mg/kg/injection, schedule: Q01DX005 (ip), vehicle: saline 98 % of control | dose: 120.0 mg/kg/injection, schedule: Q01DX005 (ip), vehicle: saline 96 % of control | dose: 240.0 mg/kg/injection, schedule: Q01DX005 (ip), vehicle: saline 96 % of control

O=C(Cc1ccc(CC(=O)NCCCCc2ccccc2)cc1)NCCCCc1ccccc1
inactive: [4] 88 % of control | [5] 88 % of control | [6] 86 % of control

C=C1C[C@@H](O)[C@H](O)[C@@]2(C)C[C@@H]3OC(=O)C(=C)[C@@H]3C[C@H]12
inactive: dose: 3.12 mg/kg/injection, schedule: Q01DX009 (ip), vehicle: saline 103 % of control | dose: 6.25 mg/kg/injection, schedule: Q01DX009 (ip), vehicle: saline 104 % of control and 119 % of control | dose: 12.5 mg/kg/injection, schedule: Q01DX009 (ip), vehicle: saline 104 % of control and 113 % of control | [7] 122 % of control

CN1NC(C)(c2ccccn2)SC1=S (stereo not given)
inactive: [1] 98 % of control | [2] 91 % of control | [3] 90 % of control

CSCc1cccc(Cl)c1N
inactive: [8] 102 % of control | [1] 106 % of control | [2] 106 % of control

Nc1nc(-c2ccccn2)cc(-c2cc(-c3ccccn3)nc(N)n2)n1
inactive: dose: 60.0 mg/kg/injection, schedule: Q01DX005 (ip), vehicle: Klucel (hydroxypropylcellulose) (HPC) 102 % of control | dose: 120.0 mg/kg/injection, schedule: Q01DX005 (ip), vehicle: Klucel (hydroxypropylcellulose) (HPC) 112 % of control

CCOC(=O)NC(CC(C)C)C(=O)NC(CC(C)C)C(=O)OC(C)(C)C (stereo not given)
inactive: [9] 98 % of control | [10] 99 % of control | [11] 100 % of control

COc1cc2c(c(OC)c1OC)-c1ccc(OC)c(=O)cc1[C@@H](N(C)C)CC2
inactive: dose: 1.25 mg/kg/injection, schedule: Q01DX009 (ip), vehicle: Klucel (hydroxypropylcellulose) (HPC) 100 % of control | dose: 2.5 mg/kg/injection, schedule: Q01DX009 (ip), vehicle: Klucel (hydroxypropylcellulose) (HPC) 107 % of control | dose: 5.0 mg/kg/injection, schedule: Q01DX009 (ip), vehicle: Klucel (hydroxypropylcellulose) (HPC) 112 % of control and 117 % of control | dose: 10.0 mg/kg/injection, schedule: Q01DX009 (ip), vehicle: Klucel (hydroxypropylcellulose) (HPC) 118 % of control and 124 % of control

Cc1cc(C)c(N)c(Br)c1
inactive: dose: 6.25 mg/kg/injection, schedule: Q01DX009 (ip), vehicle: saline with Tween-80 118 % of control | dose: 12.5 mg/kg/injection, schedule: Q01DX009 (ip), vehicle: saline with Tween-80 113 % of control | dose: 12.5 mg/kg/injection, schedule: Q04DX003 (ip), vehicle: saline with Tween-80 100 % of control | [8] 100 % of control | dose: 25.0 mg/kg/injection, schedule: Q04DX003 (ip), vehicle: other 120 % of control | dose: 25.0 mg/kg/injection, schedule: Q04DX003 (ip), vehicle: saline with Tween-80 100 % of control | dose: 50.0 mg/kg/injection, schedule: Q04DX003 (ip), vehicle: other 120 % of control | dose: 50.0 mg/kg/injection, schedule: Q04DX003 (ip), vehicle: saline with Tween-80 95 % of control

CN1C2CCC1C(O)C(c1ccc(Cl)cc1)C2 (stereo not given)
inactive: dose: 25.0 mg/kg/injection, schedule: Q01DX005 (ip), vehicle: Klucel (hydroxypropylcellulose) (HPC) 100 % of control | dose: 50.0 mg/kg/injection, schedule: Q01DX005 (ip), vehicle: Klucel (hydroxypropylcellulose) (HPC) 100 % of control | dose: 100.0 mg/kg/injection, schedule: Q01DX005 (ip), vehicle: Klucel (hydroxypropylcellulose) (HPC) 91 % of control

CCCCC1CN=C(OCC)N1 (stereo not given)
inactive: dose: 6.25 mg/kg/injection, schedule: Q01DX005 (ip), vehicle: saline with Tween-80 104 % of control | dose: 12.5 mg/kg/injection, schedule: Q01DX005 (ip), vehicle: saline with Tween-80 98 % of control

O=C(O)c1ncc2ncccc2c1O
inactive: [12] 107 % of control | [13] 104 % of control | [14] 101 % of control

CN(C)CCOc1ccccc1Cc1ccccc1
inactive: [1] 95 % of control | [2] 100 % of control | [3] 118 % of control

N#CC1(O)CCCCC1
inactive: dose: 2.5 mg/kg/injection, schedule: Q01DX009 (ip), vehicle: saline with Tween-80 100 % of control | dose: 5.0 mg/kg/injection, schedule: Q01DX009 (ip), vehicle: saline with Tween-80 104 % of control | dose: 10.0 mg/kg/injection, schedule: Q01DX009 (ip), vehicle: saline with Tween-80 104 % of control

Cc1cc(Cl)ccc1N=Cc1ccc(OCc2ccccc2)cc1
inactive: [1] 92 % of control | [2] 90 % of control | [3] 88 % of control

O=S(=O)(/C=C/c1ccc(F)cc1)Cc1ccccc1
inactive: [9] 92 % of control | [10] 92 % of control | [11] 90 % of control

CC1(C)[C@@H]2CC[C@H](OC(=O)/C=C/c3ccccc3)[C@@H]2[C@@H]2CC[C@H]3O[C@]321
inactive: dose: 80.0 mg/kg/injection, schedule: Q01DX001 (ip), vehicle: Klucel (hydroxypropylcellulose) (HPC) 109 % of control | dose: 160.0 mg/kg/injection, schedule: Q01DX001 (ip), vehicle: Klucel (hydroxypropylcellulose) (HPC) 102 % of control | dose: 320.0 mg/kg/injection, schedule: Q01DX001 (ip), vehicle: Klucel (hydroxypropylcellulose) (HPC) 100 % of control

Cc1ccc(Nc2nnc(CSc3ccc(Cl)cc3)s2)c(S(=O)(=O)O)c1
inactive: [4] 104 % of control | [5] 94 % of control | [6] 104 % of control

CN(C(N)=O)C1CCCC1
inactive: dose: 100.0 mg/kg/injection, schedule: Q04DX003 (ip), vehicle: saline with Tween-80 100 % of control | dose: 200.0 mg/kg/injection, schedule: Q04DX003 (ip), vehicle: saline with Tween-80 109 % of control | dose: 400.0 mg/kg/injection, schedule: Q04DX003 (ip), vehicle: saline with Tween-80 113 % of control

CC1(C)COCN1COC1CCCCC1
inactive: [7] 120 % of control

CCO/C(C)=N/NC(=O)c1n[nH]c2ccccc12
inactive: [9] 92 % of control | [10] 91 % of control | [11] 90 % of control

CC(=O)Oc1cc2nc3ccccc3nc2cc1N(C)C
inactive: [12] 99 % of control | [13] 90 % of control | [14] 100 % of control

Cc1ccc2nc3c(nc2c1)n(-c1ccccc1)c(=O)n3-c1cccc(Cl)c1
inactive: [9] 90 % of control | [10] 100 % of control | [11] 101 % of control

CCN1C(=O)C=CC1=O
inactive: dose: 1.56 mg/kg/injection, schedule: Q04DX003 (ip), vehicle: saline with Tween-80 109 % of control and 98 % of control | dose: 3.12 mg/kg/injection, schedule: Q04DX003 (ip), vehicle: saline with Tween-80 99 % of control and 96 % of control | dose: 6.25 mg/kg/injection, schedule: Q04DX003 (ip), vehicle: saline with Tween-80 99 % of control and 95 % of control

NC(=O)c1nc2c(Nc3cccc(Cl)c3)nc(N)nc2nc1N
inactive: dose: 100.0 mg/kg/injection, schedule: Q01DX001 (ip), vehicle: saline 100 % of control | dose: 200.0 mg/kg/injection, schedule: Q01DX001 (ip), vehicle: saline 104 % of control | dose: 400.0 mg/kg/injection, schedule: Q01DX001 (ip), vehicle: saline 104 % of control
